Laboratory results reported in patent publication US6926890B2, “Non-invasive approach for assessing tumors in living animals” (priority 2000, dated 2005).
Entries after “also recorded” stand apart in the source; their conditions may differ.

B1: β-hCG: β-subunit of human chorionic gonadotropin, glycoprotein hormone secreted by recombinant tumor cells as urinary marker (protein)
chain: SKEPLRPRCRPINATLAVEKEGCPVCITVNTTICAGYCPTMTRVLQGVLPALPQVVCNYRDVRFESIRLPGCPRGVNPVVSYAVALSCQCALCRRSTTDCGGPKDHPLTCDDPRFQDSSSSKAPPPSLPSPSRLPGPSDTPILPQ

Experiments:
[1] = tested on: EMT6-CG-TK cells; assay: Ganciclovir treatment of intraperitoneal EMT6-CG-TK tumors monitored by urinary β-hCG; type: in vivo, Balb/c mice
Method: (§1) FIG. 5C. Urinary β-hCG levels before and after ganciclovir (GCV) treatment of intraperitoneal tumors. Five Balb/c mice were injected intraperitoneally with 4×10^6 EMT6-CG-TK cells (black symbols). They received a four-day course of ganciclovir (150 mg/kg/day), administered intraperitoneally beginning three days after tumor cell injection.
(§2) The β-hCG MAIAclone kit (Polymedco Inc. Cortlandt Manor, N.Y.), based on an immunoradiometric system, was used for quantitative determination of urinary β-hCG. Fifty μl of mouse urine samples diluted to achieve a final β-hCG concentration of 2.5-20 mIU/ml, standards, positive and negative controls were mixed with 0.5 ml of ^125I anti-hCG antibodies in 12×75 mm glass tubes (VWR Scientific, Boston, Mass.) and incubated at 37° C. for 15 min. […] The radioactivity of each sample was analyzed in a Gamma 5500 counter (Beckman, Fullerton, Calif.). […] Urinary β-hCG levels were normalized to urinary creatinine measured with a Roche Hitachi 917 analyzer (Roche Diagnostics, Indianapolis, Ind.). The ratio of β-hCG to creatinine was expressed as mIU β-hCG/mg creatinine.
(§3) Next the recombinant tumor system of the present invention was applied to a chemotherapeutic model. […] The difference between the kinetics of tumor cell death mediated by surgery and chemotherapy is readily evident through comparison of FIGS. 5A and 5C.

[2] = tested on: EMT6-CG tumors; assay: Ganciclovir treatment of control EMT6-CG tumors monitored by urinary β-hCG; type: in vivo, Balb/c mice; details: control EMT6-CG tumors without thymidine kinase
Method: as §1, §2, §3

[3] = Comparison of β-hCG concentrations in urine and serum of mice with subcutaneous B16-CG tumors; type: in vivo; details: serum 10-240 mIU/ml, six mice
Method: The β-hCG MAIAclone kit (Polymedco Inc. Cortlandt Manor, N.Y.), based on an immunoradiometric system, was used for quantitative determination of urinary β-hCG. Fifty μl of mouse urine samples diluted to achieve a final β-hCG concentration of 2.5-20 mIU/ml, standards, positive and negative controls were mixed with 0.5 ml of ^125I anti-hCG antibodies in 12×75 mm glass tubes (VWR Scientific, Boston, Mass.) and incubated at 37° C. for 15 min. Two hundred μl of the magnetic separation matrix provided with the kit was then added to each tube and incubated for 5 min at room temperature. The magnetic reagent with bound β-hCG was separated using a magnetic concentrator (Polymedco Inc.). The matrix was washed in 0.5 ml of the MAIAclone washing buffer provided with the kit and reseparated magnetically. The radioactivity of each sample was analyzed in a Gamma 5500 counter (Beckman, Fullerton, Calif.). The minimal detectable level of β-hCG was 2.5 mIU/ml. Urinary β-hCG levels were normalized to urinary creatinine measured with a Roche Hitachi 917 analyzer (Roche Diagnostics, Indianapolis, Ind.). The ratio of β-hCG to creatinine was expressed as mIU β-hCG/mg creatinine.
To determine whether β-hCG would be excreted in the urine of mice, as it is in pregnant women, the concentrations of β-hCG in urine and serum of mice with subcutaneous B16-CG tumors were compared. […]

[4] = Clearance of urinary β-hCG after surgical removal of subcutaneous SW480-CG tumors; type: in vivo, athymic (nu/nu) mice
Method: Female mice, 10-12 weeks old, were obtained from Harlan (Indianapolis, Ind.). For tail vein injections, 10^5 B 16-CG cells in 0.1 ml PBS were injected into C57BL/6 mice. For intraperitoneal administration, 2×10^6 EMT6-CG cells in 0.3 ml PBS were injected intraperitoneally into Balb/c mice. For intrasplenic injection, 10^6 B16-CG cells in 0.1 ml PBS were injected into the spleens of athymic (nu/nu) mice. For subcutaneous injection, 3×10^6 B16-CG cells or 8×10^6 SW480-CG cells in 0.1 ml PBS were injected into subcutaneous tissues adjacent to the lower spine of athymic (nu/nu) mice.
as §2, with “creatinine. […]” for “creatinine.”

Molecule	Urinary β-hCG levels after ganciclovir treatment ([1]; ganciclovir 150 mg/kg/day intraperitoneally, four-day course beginning three days after tumor cell injection)	Necropsy finding after ganciclovir treatment ([1]; necropsy after β-hCG declined to background)	Tumor response to ganciclovir (urinary β-hCG) [2]	urine concentration relative to serum concentration of β-hCG [3]	half-life of urinary β-hCG ([4]; after surgical removal of SW480-CG tumors, eight animals) [h]	Urinary β-hCG levels after tumor removal ([4]; subcutaneous SW480-CG tumors removed 18 days after implantation, within a day or two of removal)
Nc1nc(O)c2ncn(COC(CO)CO)c2n1 [ganciclovir]	began to decline one day after the start of ganciclovir treatment; also recorded: declined to background levels over the next five days	apparently tumor free, without ascites or peritoneal implants	did not respond; also recorded: continued to grow			
B1				3.8±0.31 times the serum concentration	11 ± 2.3	rapidly dropped to undetectable levels
